The values below come from PubChem BioAssay AID2060605 (Molecular Pharmacology Branch, DTP, NCI, 2025).

pIC50: −log10 of the molar value. Values joined by “and” are separate entries in the source; they are usually repeats but may differ in a detail not shown here. Equal values may be shown once. Active and inactive are the calls of the source. How the source made its calls: active means viability on the fitted dose curve at most 10% of control; inactive means the rest.

This assay deals with 947758-054-R-J2-PDC spheroid growth, percent test/control. The assay can be described thus: Anticancer human tumor 947758-054-R-J2-PDC patient-derived colon adenocarcinoma cell line growth inhibition [CLK]. The following applies: spheroids with HUVEC and MSC; for viability, T/C: stronger effect = lower value; for pIC50: curve of compound. The source says: A high-throughput screen of multi-cell type tumor spheroids was designed to identify active combinations of […] and targeted small molecules. Complex spheroids include a stromal component modeled by human endothelial cells (HUVEC) and fibroblasts modeled by human mesenchymal stem cells (MSCs). The concentration ranges selected for each drug and investigational agent were based upon clinically achievable concentrations if the clinical Cmax of the agent was known.
Compounds. The drugs and investigational agents: cirtuvivint (SM08502; NSC835563), CC-671 (NSC850746), vemurafenib (NSC761431), tapotoclax (NSC804041), sotorasib (NSC818433), adagrasib (NSC831453), MRTX-1133 (NSC836407), BAY2416964 (NSC825713), copanlisib (NSC816437), inavolisib (NSC800729), abemaciclib (NSC768073), osimertinib (NSC779217), entinostat (NSC756642), eltanexor (KPT-8602, NSC794443), venetoclax (NSC766270), ceralasertib (NSC777638), bortezomib (NSC756655), olaparib (NSC753686), talazoparib (NSC767125), alisertib (NSC759677), peposertib (NSC802822), gemcitabine (NSC613327), 5-fluorouracil (NSC19893), SN-38 (NSC673596), oxaliplatin (NSC266046), paclitaxel (NSC125973), and doxorubicin (NSC123127), were obtained from the National Cancer Institute (NCI) Developmental Therapeutics Program Chemical Repository. The FDA-approved anticancer drug set is available from the Developmental Therapeutics Program at https://dtp.cancer.gov/organization/dscb/obtaining/available plates.htm. […] The stock solutions were prepared in dimethyl sulfoxide (DMSO, Sigma-Aldrich, St. Louis, MO, cat. D2650), except for the platinum complexes which were prepared in saline (Quality Biological, Gaithersburg, MD, cat. 114-055-101), at 800-fold the tested concentration and stored at -70 degrees C prior to their use. All drugs and investigational agents were tested over a range starting from a high concentration at or near the clinical Cmax and decreasing in half-log increments. If the clinical Cmax for an agent had not been determined, the highest concentration tested was 10 microM.
Cell Culture. All cells were maintained in an incubator at 37 degrees C and 5% CO2 with 95% humidity. The PDC lines were cultured according to standard operating procedures established by the NCI PDMR. Briefly, all PDCs were thawed and cultured in Matrigel-coated flasks prepared with a working solution of 1X Ham's F-12 nutrient mix, without supplementation (Invitrogen, Waltham, MA, cat. 11765054), 100 U/mL penicillin-streptomycin (Invitrogen, cat. 15140122), and 2.5% Matrigel (Corning Inc., Corning, NY, cat. 354248) for the first three passages. The 947758-054-R-J2-PDC line was cultured in 6B/Colon 1A media, which includes advanced DMEM/F-12 (Thermo Fisher Scientific, cat. 12634028), 10 mM HEPES (Thermo Fisher Scientific, cat. 15630080), 1X GlutaMAX supplement (Thermo Fisher Scientific, cat. 35050061), 0.1 mg/mL primocin (InvivoGen, cat. ant-pm-2), 10% defined fetal bovine serum, heat inactivated (HyClone Laboratories Inc., cat. SH30070.03HI), 1.25 mM N-Acetyl-L-cysteine (Sigma-Aldrich, cat. A9165), 10 mM nicotinamide (Sigma-Aldrich, cat. N0636), 1X B-27 supplement (Thermo Fisher Scientific, cat. 17504044), 1X N-2 supplement (Thermo Fisher Scientific, cat. 17502048), and 10 microM Y-27632 dihydrochloride (Tocris Bioscience, cat. 1254). The 876862-298-R-J1-PDC was cultured in 6E media, which includes all 6B/Colon 1A media components plus 50% L-WRN conditioned media (ATCC, cat. CRL-3276), 50 ng/mL recombinant human EGF recombinant protein (hEGF; Thermo Fisher Scientific, cat. PHG0311), 10 ng/mL recombinant human fibroblast growth factor 10 (hGFG-10; PeproTech, cat. 100-26), 1 ng/mL recombinant human fibroblast growth factor 2 (hFGF-2; PeproTech, cat. 100-18B), and 1 µM prostaglandin E2 (PGE2; Tocris, cat. 2296). The 227483-062-R1-J1-PDC line was cultured in Panc media, containing all 6E components except hFGF-2, with the addition of 500 nM SB-431542 (Selleckchem, cat. S1067) and 10 nM gastrin (Tocris, cat. 3006). […]
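Further: spheroids exposed to compounds for one week before readout.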
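Wherever viability, T/C is given: 100% = DMSO vehicle control wells.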

Regarding `CC(=O)O[C@H]1C(=O)[C@@]2(C)[C@H]([C@H](OC(=O)c3ccccc3)[C@]3(O)C[C@H](OC(=O)[C@H](O)[C@@H](NC(=O)c4ccccc4)c4ccccc4)C(C)=C1C3(C)C)[C@]1(OC(C)=O)CO[C@@H]1C[C@@H]2O`, the pIC50 is above 7.50. In addition, the viability, T/C (compound 0.0316 µM) is 7.6% and 8.82%. Further, the viability, T/C (compound 0.1 µM) was 6.29% and 6.22%. Also, where the note is “compound 0.316 µM”, the viability, T/C is 5.41% and 6.88%. Besides, the viability, T/C (compound 1 µM) was 5.07% and 6.19%. Besides, the viability, T/C (compound 3.16 µM) is 6.6% and 8.41%. The viability, T/C (compound 10 µM) was 11.7% and 13.7%.
With `CC1(C)CCC(CN2CCN(c3ccc(C(=O)NS(=O)(=O)c4ccc(NCC5CCOCC5)c([N+](=O)[O-])c4)c(Oc4cnc5[nH]ccc5c4)c3)CC2)=C(c2ccc(Cl)cc2)C1`, the pIC50 is 5.28 and 5.29. Where the note is “compound 0.0316 µM”, the viability, T/C was 97.8% and 118%. Besides, the viability, T/C (compound 0.1 µM) was 77.6% and 97.2%. Besides, the viability, T/C (compound 0.316 µM) was 97.4% and 110%. Further, for the setting “compound 1 µM”, the viability, T/C was 94.5% and 86.3%. Moreover, the viability, T/C (compound 3.16 µM) is 79.5% and 87.2%. The viability, T/C (compound 10 µM) is 11.8% and 7.38%.
On to `CC1COCCN1c1cc(C2(S(C)(=N)=O)CC2)nc(-c2ccnc3[nH]ccc23)n1` (configuration not stated), for which the pIC50 is 5.13 and 5.20. For the setting “compound 0.0316 µM”, the viability, T/C is 110% and 128%. For the same compound, the viability, T/C (compound 0.1 µM) was 92.4% and 100%. Moreover, the viability, T/C (compound 0.316 µM) was 79.1% and 102%. Further, the viability, T/C (compound 1 µM) is 111% and 108%. Further, for the setting “compound 3.16 µM”, the viability, T/C was 202% and the outcome was inactive. Also, where the note is “compound 10 µM”, the viability, T/C is 26.1% and 28.4%.
For `CN1CCN(c2cc(C(=O)Nc3cc4cc(-c5cnn(C)c5)ccc4cn3)ccn2)CC1`, the viability, T/C (compound 0.316 µM) is 5.15% [middle of 12 runs]; the viability, T/C (compound 1 µM) was 0.61% [middle of 11 runs]; the viability, T/C (compound 3.16 µM) was 0.65% [middle of 10 runs]; the viability, T/C (compound 10 µM) is 0.36% [middle of 11 runs]. For the same compound, for the setting “compound alone, run of 09/18/2023”, the IC50 is 216 nM [middle of 10 runs].
`COc1ccc([C@@H](O)c2cc(-c3ncnc4cc(N5CCOCC5)ccc34)c(F)cc2Cl)nn1`: the negative-log IC50 (pIC50) was below 5.00. Also, the viability, T/C (compound 0.0316 µM) was 72.8% and 98.3%. The viability, T/C (compound 0.1 µM) is 69.7% and 91.4%. Moreover, under “compound 0.316 µM”, the viability, T/C was 86.8% and 105%. The viability, T/C (compound 1 µM) was 108% and 82.2%. Further, the viability, T/C (compound 3.16 µM) is 97.9% and 117%. For the same compound, under “compound 10 µM”, the viability, T/C is 65.9% and 83.9%.
Consider `COc1cccc2c1C(=O)c1c(O)c3c(c(O)c1C2=O)CC(O)(C(=O)CO)CC3OC1CC(N)C(O)C(C)O1` (configuration not stated), for which the pIC50 was 7.07 and 7.23. Further, for the setting “compound 0.0316 µM”, the viability, T/C was 94.6% and 56.2%. The viability, T/C (compound 0.1 µM) is 39.9% and 44.2%. In addition, the viability, T/C (compound 0.316 µM) is 22.5% and 26.6%. Further, the viability, T/C (compound 1 µM) was determined as 11.3%. Moreover, for the setting “compound 3.16 µM”, the viability, T/C was 0.28% and 0.34%. Also, the viability, T/C (compound 10 µM) is 3.11% and 2.84%.
As to `Nc1ccn(C2OC(CO)C(O)C2(F)F)c(=O)n1` (configuration not stated), the pIC50 is above 7.50. Moreover, the viability, T/C (compound 0.0316 µM) is 35.4% and 24.8%. In addition, where the note is “compound 0.1 µM”, the viability, T/C was 9.92% and 9.41%. Besides, the viability, T/C (compound 0.316 µM) is 13.3% and 10.2%. Further, where the note is “compound 1 µM”, the viability, T/C was 14.8% and 12.9%. The viability, T/C (compound 3.16 µM) was 10.8% and 9.65%. The viability, T/C (compound 10 µM) was 8.94% and 10.9%.
For the compound `O=C(c1cc(Cc2n[nH]c(=O)c3ccccc23)ccc1F)N1CCN(C(=O)C2CC2)CC1`, the negative logarithm of the IC50 (pIC50) was below 5.00. In addition, the viability, T/C (compound 0.0316 µM) is 94.1% and 101%. The viability, T/C (compound 0.1 µM) is 93.6% and 90%. Besides, where the note is “compound 0.316 µM”, the viability, T/C was 106% and 101%. Where the note is “compound 1 µM”, the viability, T/C was 107%. The viability, T/C (compound 3.16 µM) was 131% and 101%. For the same compound, for the setting “compound 10 µM”, the viability, T/C is 177% and 120%.
For `O=c1[nH]cc(F)c(=O)[nH]1`, the pIC50 was 5.89 and 5.84. Also, the viability, T/C (compound 0.0316 µM) was 91.8% and 91.2%. Besides, the viability, T/C (compound 0.1 µM) is 103% and 99%. Besides, the viability, T/C (compound 0.316 µM) is 129% and 86.8%. Moreover, the viability, T/C (compound 1 µM) was 54.9% and 55.9%. For the same compound, the viability, T/C (compound 3.16 µM) was 34.4% and 37.1%. The viability, T/C (compound 10 µM) is 31.2% and 36.5%.
